Results taken from US8586552B2, “4,6-substituted 2,5-dideoxystreptamine aminoglycoside antibiotics” (SelectX Pharmaceuticals, Inc., priority 2012, dated 2013).
≈ marks a conversion by molar mass, not a printed value.

Columns and labels:
[1] = tested on: Klebsiella pneumoniae KR2 (clinical isolate with intermediate aminoglycoside resistance); test: MIC against Klebsiella pneumoniae clinical isolate KR2; assay type: cell-based; settings: Klebsiella pneumonia KR2
Text: (§1) Klebsiella pneumoniae (Kpn) and Escherichia coli (Eco) are gram-negative (like Pae), enteric pathogens with increasing clinical relevance. Many clinical isolates of Kpn and Eco harbor extended-spectrum beta-lactamases and are no longer sensitive to most beta-lactam antibiotics. We acquired clinical isolates of Klebsiella pneumoniae and Escherichia coli (Micromyx LLC, Kalamazoo, Mich.) and used this panel to test compounds for anti-enteric activity.

[2] = tested on: Klebsiella pneumoniae KR1 (clinical isolate with intermediate aminoglycoside resistance); test: MIC against Klebsiella pneumoniae clinical isolate KR1; assay type: cell-based; settings: Klebsiella pneumonia KR1; in µg/mL
Text: as §1

[3] = tested on: Acinetobacter baumannii (Aba, ABWT, ATCC #BAA-747); test: MIC against Acinetobacter baumannii reference strain ABWT; assay type: cell-based
[4] = tested on: more than fifty resistant contemporary clinical isolates of Pseudomonas aeruginosa; test: MIC90 against panel of resistant clinical isolates of Pseudomonas aeruginosa; assay type: cell-based
[5] = tested on: Acinetobacter baumannii AB3; test: MIC against Acinetobacter baumannii clinical isolate AB3; assay type: cell-based
Text: Acinetobacter baumannii is another clinically important and very challenging gram negative pathogen. Members of the Acinetobacter genus, including baumannii, have a remarkable ability to upregulate and acquire resistance determinants. Coupled with its ability to survive for prolonged periods in a hospital environment, A. baumannii is an emerging threat for healthcare institutions globally. We acquired clinical isolates of Acinetobacter baumannii and used this panel to test compounds for anti-Acinetobacter activity. We first tested reference AGs against our panel of Aba strains.

[6] = tested on: Pseudomonas aeruginosa (Pae, PAWT, ATCC #27853); test: MIC against Pseudomonas aeruginosa reference strain PAWT; assay type: cell-based; settings: Pseudomonas aeruginosa wild type PAWT
[7] = tested on: resistant strain of P. aeruginosa (P. aeruginosa 6294 MLP-3); test: Rat neutropenic thigh model against resistant P. aeruginosa; assay type: in vivo
Experimental: The compound identified as SXP 2523 was further tested in vivo against a resistant strain of P. aeruginosa. Twenty male Sprague Dawley rats were rendered neutropenic by treatment with cyclophosphamide on day −4 and day −1 with 100 mg/kg and 75 mg/kg, respectively. Rats were infected with P. aeruginosa 6294 MLP-3, via injection into the right thigh muscle of 0.1 mL per rat. Two hours post infection rats were treated intravenously with either SXP-2523 or amikacin in a total dose of 10 or 60 mg/kg, respectively. The test article and control agent were delivered at 2, 4, and 6 hours post infection. Five rats were treated with each drug concentration. One group of five rats were euthanized at initiation of treatment and thigh CFUs were determined (T=Rx). Twenty-four hours post infection; rats were euthanized by CO2 inhalation. The right thigh muscles of the rats were aseptically removed, weighed, homogenized, serially diluted, and plated on BHI medium. The plates were incubated overnight at 37° C. in 5% CO2. CFU per gram of thigh was calculated by enumerating the plated colonies then adjusting for serial dilutions and the weight of the thigh.

[8] = tested on: panel of E. coli strains; test: MIC90 against a panel of E. coli strains; assay type: cell-based; settings: in µg/mL
[9] = tested on: P. aeruginosa 6294 MLP-3; test: Rat neutropenic thigh model; assay type: in vivo
Experimental: The compound identified as SXP 2523 was selected for further testing in vivo. Twenty male Sprague Dawley rats were pre-treated with cyclophosphamide to render them neutropenic on day −4 and day −1 with 100 mg/kg and 75 mg/kg respectively. Rats were infected with P. aeruginosa 6294 MLP-3, via injection into the right thigh muscle of 0.1 mL per rat. Two hours post infection rats were treated intravenously with either SXP-2523 or amikacin in a total dose of 10 or 60 mg/kg, respectively. The test article and control agent were delivered at 2, 4, and 6 hours post infection. Five rats were treated with each drug concentration. One group of five rats was euthanized at initiation of treatment and thigh CFUs were processed (T=Rx). Twenty-four hours post infection rats were euthanized by CO2 inhalation. The right thigh muscles of the rats were aseptically removed, weighed, homogenized, serially diluted, and plated on MacConkey medium. The plates were incubated overnight at 37° C. in 5% CO2. CFU per gram of thigh was calculated by enumerating the plated colonies then adjusting for serial dilutions and the weight of the thigh. The following table 7 summarizes the results Table 6: […]

[10] = tested on: Klebsiella pneumoniae (Kpn, KPWT, ATCC #700603); test: MIC against Klebsiella pneumoniae reference strain KPWT; assay type: cell-based; settings: Klebsiella pneumonia KPWT, Table 5 (unit not given); in µg/mL
[11] = rat neutropenic thigh model, total dose 10 mg/kg iv
[12] = resistant P. aeruginosa, Log CFU/thigh, total dose 10 mg/kg SXP-2523 or 60 mg/kg amikacin iv
[13] = Log CFU/thigh, total dose 10 mg/kg SXP-2523 or 60 mg/kg amikacin iv

NCCCNCC1OC(OC2C(NC(=O)C(O)CCN)CC(N)C(OC3OC(CN)C(O)CC3N)C2F)C(O)C(N)C1O (stereo not shown) [SXP 2523]
MIC KR2 [1]: 0.5-1
MIC KR1 [2]: 0.5-1
MIC ABWT [3]: 0.5 µg/mL (≈ 0.798 µM)
MIC90 Pseudomonas aeruginosa [4]: 4 µg/mL (≈ 6.38 µM)
MIC AB3 [5]: 4 to 8 µg/mL
MIC PAWT [6]: 0.25 µg/mL (≈ 0.399 µM)
efficacy against amikacin-resistant P. aeruginosa in animal model [7, 11]: effective against amikacin-resistant P. aeruginosa
Change from 24 hr. control [7, 12]: −4.94
Change from T = Rx controls [7, 12]: −1.78
Log CFU/thigh ([7]; resistant P. aeruginosa, neutropenic male Sprague Dawley rats, iv at 2, 4, 6 h post infection, total dose 10 mg/kg SXP-2523 or 60 mg/kg amikacin, 24 h post infection): 1.71 Log CFU/thigh
MIC90 E. coli [8]: 2
Change from 24 hr. control [9, 13]: −0.71
Change from T = Rx controls [9, 13]: 2.37
Log CFU/thigh ([9]; neutropenic male Sprague Dawley rats, iv at 2, 4, 6 h post infection, total dose 10 mg/kg SXP-2523 or 60 mg/kg amikacin, 24 h post infection): 6.55 Log CFU/thigh
efficacy against P. aeruginosa in animal model [9, 11]: effective against P. aeruginosa
MIC KPWT [10]: 0.5-1
